Reference: patent US12258327B2, “5-membered heteroaryl-containing aminopyridine compounds as EGFR inhibitors” (YUHAN CORPORATION, priority 2021, dated 2025)
Read-outs that look alike come from different tables or passages of the source.

Experiments:
EGFR del19/T790M/C797S = EGFR del19/T790M/C797S (Homo sapiens, UniProt P00533, C797S/DEL746-750/T790M); assay: Biochemical EGFR kinase assay (Lance Ultra TR-FRET), triple mutant del19/T790M/C797S
Summary of the method: (§1)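 Step 1: compound in kinase buffer, 0.003–10 μM. Step 2: kinase reaction 1 h at room temperature. Step 4: TR-FRET read at 615/665 nm; IC50 calculated.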

EGFR L858R/T790M/C797S = EGFR L858R/T790M/C797S (Homo sapiens, UniProt P00533, C797S/L858R/T790M); assay: Biochemical EGFR kinase assay (Lance Ultra TR-FRET), triple mutant L858R/T790M/C797S
Summary of the method: as §1

EGFR del19/C797S = EGFR del19/C797S (Homo sapiens, UniProt P00533, C797S/DEL746-750); assay: Biochemical EGFR kinase assay (Lance Ultra TR-FRET), double mutant del19/C797S
Summary of the method: as §1

EGFR L858R/C797S = EGFR L858R/C797S (Homo sapiens, UniProt P00533, C797S/L858R); assay: Biochemical EGFR kinase assay (Lance Ultra TR-FRET), double mutant L858R/C797S
Summary of the method: as §1

EGFR wildtype (WT) = EGFR wildtype (WT) (Homo sapiens, UniProt P00533); assay: Biochemical EGFR kinase assay (Lance Ultra TR-FRET), wildtype
Summary of the method: as §1

[1] = Km ATP, read-out: IC50 del19/T790M/C797S (nM) Km ATP
[2] = Km ATP, read-out: IC50 L858R/T790M/C797S (nM) Km ATP
[3] = Km ATP, read-out: IC50 del19/C797S (nM) Km ATP
[4] = Km ATP, read-out: IC50 L858R/C797S (nM) Km ATP
[5] = Km ATP, read-out: IC50 WT (nM) Km ATP
[6] = IC50 del19/T790M/C797S (nM) 100 μM ATP, 100 μM ATP
[7] = IC50 L858R/T790M/C797S (nM) 100 μM ATP, 100 μM ATP
[8] = IC50 del19/C797S (nM) 100 μM ATP, 100 μM ATP
[9] = IC50 L858R/C797S (nM) 100 μM ATP, 100 μM ATP
[10] = IC50 WT (nM) 100 μM ATP, 100 μM ATP

EGFR L858R/C797S, sequence (P00533 25-1210 C797S/L858R): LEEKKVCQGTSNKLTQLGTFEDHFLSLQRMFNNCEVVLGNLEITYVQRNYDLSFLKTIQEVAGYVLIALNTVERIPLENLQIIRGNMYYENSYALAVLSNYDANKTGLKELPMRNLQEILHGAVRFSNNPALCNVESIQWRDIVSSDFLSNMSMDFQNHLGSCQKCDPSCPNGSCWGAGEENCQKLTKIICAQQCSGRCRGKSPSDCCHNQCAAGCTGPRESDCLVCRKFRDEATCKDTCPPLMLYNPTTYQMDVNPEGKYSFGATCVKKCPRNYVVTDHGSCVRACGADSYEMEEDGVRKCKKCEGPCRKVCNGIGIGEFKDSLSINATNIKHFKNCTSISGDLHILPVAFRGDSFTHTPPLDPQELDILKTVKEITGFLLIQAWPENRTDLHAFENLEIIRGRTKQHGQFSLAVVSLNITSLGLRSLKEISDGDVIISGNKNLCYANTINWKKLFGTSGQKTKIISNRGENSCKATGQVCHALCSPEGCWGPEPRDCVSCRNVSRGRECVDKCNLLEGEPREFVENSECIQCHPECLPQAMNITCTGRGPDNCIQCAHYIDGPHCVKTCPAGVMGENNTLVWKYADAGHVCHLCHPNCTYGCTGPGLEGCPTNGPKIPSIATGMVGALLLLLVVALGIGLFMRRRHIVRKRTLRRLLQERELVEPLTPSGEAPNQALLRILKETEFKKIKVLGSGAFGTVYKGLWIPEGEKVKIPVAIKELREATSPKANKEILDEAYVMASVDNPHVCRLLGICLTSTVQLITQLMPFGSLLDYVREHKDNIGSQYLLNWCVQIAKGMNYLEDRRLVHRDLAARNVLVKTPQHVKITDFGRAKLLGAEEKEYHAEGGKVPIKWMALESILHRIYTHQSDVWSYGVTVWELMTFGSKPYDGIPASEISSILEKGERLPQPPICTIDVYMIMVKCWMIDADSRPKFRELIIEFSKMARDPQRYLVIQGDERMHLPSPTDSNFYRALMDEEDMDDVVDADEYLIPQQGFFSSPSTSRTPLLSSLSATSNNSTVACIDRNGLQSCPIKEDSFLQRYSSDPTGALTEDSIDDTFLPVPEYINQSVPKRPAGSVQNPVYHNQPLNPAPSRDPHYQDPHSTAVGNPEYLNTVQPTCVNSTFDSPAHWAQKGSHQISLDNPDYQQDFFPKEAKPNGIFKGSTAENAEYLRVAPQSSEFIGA
EGFR wildtype (WT), sequence (P00533 25-1210): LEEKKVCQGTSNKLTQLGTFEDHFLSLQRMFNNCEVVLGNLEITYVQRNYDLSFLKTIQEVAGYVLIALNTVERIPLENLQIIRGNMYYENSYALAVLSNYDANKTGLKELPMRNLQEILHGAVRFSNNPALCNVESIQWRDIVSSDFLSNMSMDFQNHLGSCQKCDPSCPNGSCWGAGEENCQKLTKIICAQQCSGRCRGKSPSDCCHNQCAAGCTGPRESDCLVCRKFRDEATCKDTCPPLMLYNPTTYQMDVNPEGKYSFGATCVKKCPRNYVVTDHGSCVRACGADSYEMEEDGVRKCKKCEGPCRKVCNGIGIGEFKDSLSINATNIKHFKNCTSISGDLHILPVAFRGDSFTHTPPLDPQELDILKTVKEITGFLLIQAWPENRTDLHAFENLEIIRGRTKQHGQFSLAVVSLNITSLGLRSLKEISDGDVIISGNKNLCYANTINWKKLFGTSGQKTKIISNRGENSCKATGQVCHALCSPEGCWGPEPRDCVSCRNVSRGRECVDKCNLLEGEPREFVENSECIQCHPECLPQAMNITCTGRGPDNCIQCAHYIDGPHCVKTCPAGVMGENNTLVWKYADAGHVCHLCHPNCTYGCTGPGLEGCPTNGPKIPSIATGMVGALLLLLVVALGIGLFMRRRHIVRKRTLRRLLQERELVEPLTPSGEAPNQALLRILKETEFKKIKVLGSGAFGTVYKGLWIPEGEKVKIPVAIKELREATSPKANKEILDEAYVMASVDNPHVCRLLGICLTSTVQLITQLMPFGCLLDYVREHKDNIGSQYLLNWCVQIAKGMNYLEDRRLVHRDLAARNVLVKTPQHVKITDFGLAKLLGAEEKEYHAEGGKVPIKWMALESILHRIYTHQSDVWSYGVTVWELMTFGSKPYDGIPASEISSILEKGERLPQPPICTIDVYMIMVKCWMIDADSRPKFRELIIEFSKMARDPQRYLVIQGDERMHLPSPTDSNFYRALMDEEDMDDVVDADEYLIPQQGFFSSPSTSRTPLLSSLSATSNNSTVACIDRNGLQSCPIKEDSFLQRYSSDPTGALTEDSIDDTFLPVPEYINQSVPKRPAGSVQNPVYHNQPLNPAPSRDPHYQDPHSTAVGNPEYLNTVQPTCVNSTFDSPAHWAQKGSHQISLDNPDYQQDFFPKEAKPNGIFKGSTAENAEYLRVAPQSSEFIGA
EGFR L858R/T790M/C797S, sequence (P00533 25-1210 T790M/C797S/L858R): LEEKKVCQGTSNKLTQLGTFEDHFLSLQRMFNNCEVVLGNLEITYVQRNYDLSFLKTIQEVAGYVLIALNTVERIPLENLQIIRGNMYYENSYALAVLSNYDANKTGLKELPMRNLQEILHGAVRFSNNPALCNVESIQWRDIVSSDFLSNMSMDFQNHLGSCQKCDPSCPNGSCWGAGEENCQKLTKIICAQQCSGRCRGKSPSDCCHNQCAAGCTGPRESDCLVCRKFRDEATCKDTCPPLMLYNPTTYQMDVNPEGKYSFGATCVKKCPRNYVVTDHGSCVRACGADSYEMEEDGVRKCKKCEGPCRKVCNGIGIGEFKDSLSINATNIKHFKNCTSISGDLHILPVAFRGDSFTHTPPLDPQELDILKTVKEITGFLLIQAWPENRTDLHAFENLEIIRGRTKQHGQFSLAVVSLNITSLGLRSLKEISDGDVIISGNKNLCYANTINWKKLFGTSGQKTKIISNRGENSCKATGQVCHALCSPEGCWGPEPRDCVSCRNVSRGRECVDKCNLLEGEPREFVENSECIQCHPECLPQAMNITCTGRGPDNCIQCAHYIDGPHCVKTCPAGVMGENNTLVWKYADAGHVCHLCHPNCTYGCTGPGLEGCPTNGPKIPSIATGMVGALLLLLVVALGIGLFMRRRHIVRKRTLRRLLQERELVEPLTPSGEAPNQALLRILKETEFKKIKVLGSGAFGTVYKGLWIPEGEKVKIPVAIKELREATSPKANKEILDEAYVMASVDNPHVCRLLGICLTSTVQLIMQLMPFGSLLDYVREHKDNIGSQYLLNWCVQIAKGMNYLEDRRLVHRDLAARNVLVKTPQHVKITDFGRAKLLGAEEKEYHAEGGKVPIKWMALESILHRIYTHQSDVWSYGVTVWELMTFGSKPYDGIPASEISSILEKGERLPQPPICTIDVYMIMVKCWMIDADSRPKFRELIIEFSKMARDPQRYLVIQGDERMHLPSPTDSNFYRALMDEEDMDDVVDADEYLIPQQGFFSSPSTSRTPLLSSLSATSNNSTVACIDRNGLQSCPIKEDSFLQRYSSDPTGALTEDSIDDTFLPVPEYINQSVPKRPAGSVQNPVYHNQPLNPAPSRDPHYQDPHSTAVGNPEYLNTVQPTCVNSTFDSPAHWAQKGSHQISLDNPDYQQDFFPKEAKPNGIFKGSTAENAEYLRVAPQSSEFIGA
EGFR del19/T790M/C797S, sequence (P00533 with tags, fused parts or gaps DEL746-750/T790M/C797S): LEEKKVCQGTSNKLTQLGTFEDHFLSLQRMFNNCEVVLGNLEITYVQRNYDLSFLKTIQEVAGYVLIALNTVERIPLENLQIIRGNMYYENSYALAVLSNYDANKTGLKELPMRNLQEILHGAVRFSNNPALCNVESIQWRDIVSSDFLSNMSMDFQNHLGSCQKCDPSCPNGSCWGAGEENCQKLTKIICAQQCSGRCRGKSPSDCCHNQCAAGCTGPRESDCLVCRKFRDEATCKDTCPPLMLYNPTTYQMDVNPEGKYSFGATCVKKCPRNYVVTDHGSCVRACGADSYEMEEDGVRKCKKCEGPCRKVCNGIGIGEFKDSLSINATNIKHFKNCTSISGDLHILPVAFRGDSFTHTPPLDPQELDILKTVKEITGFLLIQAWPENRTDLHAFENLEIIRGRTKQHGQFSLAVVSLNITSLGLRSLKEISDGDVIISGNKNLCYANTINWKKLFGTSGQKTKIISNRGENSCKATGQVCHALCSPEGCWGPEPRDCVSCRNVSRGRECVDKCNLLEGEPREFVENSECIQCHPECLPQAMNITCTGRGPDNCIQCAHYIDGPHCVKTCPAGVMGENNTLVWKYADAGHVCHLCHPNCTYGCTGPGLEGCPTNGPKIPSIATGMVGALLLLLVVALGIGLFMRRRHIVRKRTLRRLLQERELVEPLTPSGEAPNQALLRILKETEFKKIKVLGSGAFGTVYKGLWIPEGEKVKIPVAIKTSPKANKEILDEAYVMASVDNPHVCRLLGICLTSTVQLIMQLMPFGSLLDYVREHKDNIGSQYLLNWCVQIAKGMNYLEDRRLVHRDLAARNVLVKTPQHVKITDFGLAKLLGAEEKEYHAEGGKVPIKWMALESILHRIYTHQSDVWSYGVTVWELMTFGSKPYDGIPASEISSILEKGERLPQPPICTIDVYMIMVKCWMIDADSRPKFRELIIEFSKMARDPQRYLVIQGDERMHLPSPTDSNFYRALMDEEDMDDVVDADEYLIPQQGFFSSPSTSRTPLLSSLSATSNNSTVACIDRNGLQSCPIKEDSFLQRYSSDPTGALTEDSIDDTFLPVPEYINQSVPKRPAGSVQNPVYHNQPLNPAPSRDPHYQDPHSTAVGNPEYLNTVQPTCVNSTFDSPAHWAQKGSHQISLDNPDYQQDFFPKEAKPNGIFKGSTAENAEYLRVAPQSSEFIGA

IC50 (EGFR del19/T790M/C797S; [1]) [nM]	IC50 (EGFR L858R/T790M/C797S; [2]) [nM]	IC50 (EGFR del19/C797S; [3]) [nM]	IC50 (EGFR L858R/C797S; [4]) [nM]	IC50 (EGFR wildtype (WT); [5]) [nM]	IC50 (EGFR del19/T790M/C797S; [6]) [nM]	IC50 (EGFR L858R/T790M/C797S; [7]) [nM]	IC50 (EGFR del19/C797S; [8]) [nM]	IC50 (EGFR L858R/C797S; [9]) [nM]	IC50 (EGFR wildtype (WT); [10]) [nM]	Compound	further results
3.4	2.7	370	123	488	–	–	–	–	–	CC(Nc1cc(Nc2ccnc(-c3cnn(S(=O)(=O)C4CC4)c3)n2)ncc1-c1ccn(C(F)F)n1)C(F)F (stereo not shown) [Example 213, N^2-(2-(1-(Cyclopropylsulfonyl)-1H-pyrazol-4-yl)pyrimidin-4-yl)-5-(1-(difluoromethyl)-1H-pyrazol-3-yl)-N^4-(1,1-difluoropropan-2-yl)pyridine-2,4-diamine]	–
–	–	–	–	–	–	–	–	–	–	Cc1nn(CC(F)(F)F)cc1-c1cc(Nc2ncc(-c3cc(C(F)(F)F)n(C)n3)c(N[C@H]3CC[C@@](C)(O)CC3)n2)ccn1 [Example 369, (1s,4s)-1-Methyl-4-((2-((2-(3-methyl-1-(2,2,2-trifluoroethyl)-1H-pyrazol-4-yl)pyridin-4-yl)amino)-5-(1-methyl-5-(trifluoromethyl)-1H-pyrazol-3-yl)pyrimidin-4-yl)amino)cyclohexan-1-ol]	IC50 (EGFR del19/T790M/C797S; Km ATP, read-out: IC50 del19/T790M/C797S, Km ATP): 3.1 nM; IC50 (EGFR L858R/T790M/C797S; Km ATP, read-out: IC50 L858R/T790M/C797S, Km ATP): 1 nM; IC50 (EGFR del19/C797S; Km ATP, read-out: IC50 del19/C797S, Km ATP): 8.1 nM; IC50 (EGFR L858R/C797S; Km ATP, read-out: IC50 L858R/C797S, Km ATP): 10.1 nM; IC50 (EGFR wildtype (WT); Km ATP, read-out: IC50 WT, Km ATP): 72.7 nM
–	–	–	–	–	–	–	–	–	–	O=S(=O)(C1CC1)n1cc(-c2nccc(Nc3cc(N[C@H]4CC[C@](O)(C(F)(F)F)CC4)c(-c4ccn(C(F)F)n4)cn3)n2)cn1 [Example 11, (1s,4s)-4-((2-((2-(1-(Cyclopropylsulfonyl)-1H-pyrazol-4-yl)pyrimidin-4-yl)amino)-5-(1-(difluoromethyl)-1H-pyrazol-3-yl)pyridin-4-yl)amino)-1-(trifluoromethyl)cyclohexan-1-ol]	IC50 (EGFR del19/T790M/C797S; read-out: IC50 del19/T790M/C797S (nM) 100 μM ATP, 100 μM ATP): 8.6 nM; IC50 (EGFR L858R/T790M/C797S; read-out: IC50 L858R/T790M/C797S (nM) 100 μM ATP, 100 μM ATP): 21.8 nM; IC50 (EGFR del19/C797S; read-out: IC50 del19/C797S (nM) 100 μM ATP, 100 μM ATP): 553 nM; IC50 (EGFR L858R/C797S; read-out: IC50 L858R/C797S (nM) 100 μM ATP, 100 μM ATP): 267 nM; IC50 (EGFR wildtype (WT); read-out: IC50 WT (nM) 100 μM ATP, 100 μM ATP): > 10000 nM
1.3	0.8	32.6	0.5	44.8	–	–	–	–	–	CC(C)(O)[C@H]1CC[C@@H](Nc2cc(Nc3ccnc(-c4cnn(S(=O)(=O)C5CC5)c4)n3)ncc2-c2ccn(CCC(F)(F)F)n2)CC1 [Example 300, 2-((1s,4s)-4-((2-((2-(1-(Cyclopropylsulfonyl)-1H-pyrazol-4-yl)pyrimidin-4-yl)amino)-5-(1-(3,3,3-trifluoropropyl)-1H-pyrazol-3-yl)pyridin-4-yl)amino)cyclohexyl)propan-2-ol]	–
0.6	0.1	0.6	0.3	1.2	0.4	0.3	1	3.4	669	CN(C)CCCn1ccc(-c2cnc(Nc3ccnc(-c4cnn(S(=O)(=O)C5CC5)c4)n3)cc2N[C@H]2CC[C@@H](C(C)(C)O)CC2)n1 [Example 278, 2-((1s,4s)-4-((2-((2-(1-(Cyclopropylsulfonyl)-1H-pyrazol-4-yl)pyrimidin-4-yl)amino)-5-(1-(3-(dimethylamino)propyl)-1H-pyrazol-3-yl)pyridin-4-yl)amino)cyclohexyl)propan-2-ol]	–
0.3	0.2	2.9	5	27.4	0.2	0.6	6.7	15.3	> 10000	Cn1ccc(-c2cnc(Nc3ccnc(-c4cnn(S(=O)(=O)C5CC5)c4)n3)cc2NC2CCCC(NCCF)C2)n1 (stereo not shown) [Example 225, N^2-(2-(1-(Cyclopropylsulfonyl)-1H-pyrazol-4-yl)pyrimidin-4-yl)-N^4-(3-((2-fluoroethyl)amino)cyclohexyl)-5-(1-methyl-1H-pyrazol-3-yl)pyridine-2,4-diamine]	–
0.8	0.6	42.8	37.1	624	–	–	–	–	–	CS(=O)(=O)c1ccn(-c2cnc(Nc3ccnc(-c4cnn(S(=O)(=O)C5CC5)c4)n3)cc2N[C@H]2CC[C@@](C)(O)CC2)n1 [Example 183, (1s,4s)-4-((2-((2-(1-(Cyclopropylsulfonyl)-1H-pyrazol-4-yl)pyrimidin-4-yl)amino)-5-(3-(methylsulfonyl)-1H-pyrazol-1-yl)pyridin-4-yl)amino)-1-methylcyclohexan-1-ol]	–
0.4	0.2	0.5	0.4	44.2	0.4	0.4	0.4	4.1	3640	CCS(=O)(=O)n1cc(-c2nccc(Nc3cc(N[C@H]4CC[C@@](C)(O)CC4)c(-c4ccn(C(F)F)n4)cn3)n2)cn1 [Example 308, (1s,4s)-4-((5-(1-(Difluoromethyl)-1H-pyrazol-3-yl)-2-((2-(1-(ethylsulfonyl)-1H-pyrazol-4-yl)pyrimidin-4-yl)amino)pyridin-4-yl)amino)-1-methylcyclohexan-1-ol]	–
0.2	0.1	0.6	0.4	4.4	0.5	0.5	0.8	9.2	> 10000	Cn1ccc(-c2cnc(Nc3ccnc(-c4cnn(S(=O)(=O)C5CC5)c4)n3)cc2N[C@H]2CC[C@H](CCO)CC2)n1 [Example 134, 2-((1r,4r)-4-((2-((2-(1-(Cyclopropylsulfonyl)-1H-pyrazol-4-yl)pyrimidin-4-yl)amino)-5-(1-methyl-1H-pyrazol-3-yl)pyridin-4-yl)amino)cyclohexyl)ethan-1-ol]	–
0.9	0.4	–	–	9.5	0.9	0.8	4	36.1	> 10000	CN(CC(F)F)C(=O)[C@H]1CC[C@@H](Nc2cc(Nc3ccnc(-c4cnn(S(=O)(=O)C5CC5)c4)n3)ncc2-c2ccn(C(F)F)n2)CC1 [Example 204, (1s,4s)-4-((2-((2-(1-(Cyclopropylsulfonyl)-1H-pyrazol-4-yl)pyrimidin-4-yl)amino)-5-(1-(difluoromethyl)-1H-pyrazol-3-yl)pyridin-4-yl)amino)-N-(2,2-difluoroethyl)-N-methylcyclohexane-1-carboxamide]	–
–	0.9	2.3	7	3.4	1.1	2.1	3.2	10.6	618	Cn1nc(-c2cnc(Nc3ccnc(-c4cnn(S(=O)(=O)C5CC5)c4)n3)cc2N[C@H]2CC[C@@H](CO)CC2)cc1C(F)(F)F [Example 253, ((1s,4s)-4-((2-((2-(1-(Cyclopropylsulfonyl)-1H-pyrazol-4-yl)pyrimidin-4-yl)amino)-5-(1-methyl-5-(trifluoromethyl)-1H-pyrazol-3-yl)pyridin-4-yl)amino)cyclohexyl)methanol]	–
2.6	2.2	96.6	86.4	523	–	–	–	–	–	C[C@]1(O)CC[C@@H](Nc2cc(Nc3ccnc(-c4cccnc4F)n3)ncc2-c2ccn(C(F)F)n2)CC1 [Example 171, (1s,4s)-4-((5-(1-(Difluoromethyl)-1H-pyrazol-3-yl)-2-((2-(2-fluoropyridin-3-yl)pyrimidin-4-yl)amino)pyridin-4-yl)amino)-1-methylcyclohexan-1-ol]	–
–	–	–	–	–	1.7	2.4	35.5	1400	> 10000	O=S(=O)(C1CC1)n1cc(-c2nccc(Nc3cc(NC4CCCC(NCC(F)F)C4)c(-c4ccn(C(F)F)n4)cn3)n2)cn1 (stereo not shown) [Example 191, N^2-(2-(1-(Cyclopropylsulfonyl)-1H-pyrazol-4-yl)pyrimidin-4-yl)-N^4-(3-((2,2-difluoroethyl)amino)cyclohexyl)-5-(1-(difluoromethyl)-1H-pyrazol-3-yl)pyridine-2,4-diamine]	–
–	–	–	–	–	172	63.9	151	819	> 10000	CN(CC(F)F)C[C@H]1CC[C@@H](Nc2cc(Nc3ccnc(-c4cnn(S(=O)(=O)C5CC5)c4)n3)ncc2-c2cc(C(F)(F)F)n(C)n2)CC1 [Example 259, N^2-(2-(1-(Cyclopropylsulfonyl)-1H-pyrazol-4-yl)pyrimidin-4-yl)-N^4-((1s,4s)-4-(((2,2-difluoroethyl)(methyl)amino)methyl)cyclohexyl)-5-(1-methyl-5-(trifluoromethyl)-1H-pyrazol-3-yl)pyridine-2,4-diamine]	–
